Laboratory results from patent publication US20050112573A1, “Method of detecting toxic substance” (priority 2001, published 2005).

Tested on: yeast genes (level of expressed mRNA)
Experiment: DNA chip analysis of expressed mRNA of yeast genes after 2 h culture with a toxic chemical substance
Type: cell-based, Saccharomyces cerevisiae S288C
Procedure, shortened: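 Values are treated-to-control fluorescence ratios from a whole-yeast-genome DNA chip (65° C, over 12 h hybridization) using Cy3/Cy5-labelled cDNA from mRNA. Log-phase S288C cells in YPD at 25° C were exposed 2 h to a toxicant at sublethal, growth-inhibiting concentration.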

γ-hexachlorocyclohexane [(7)]
The level of expressed mRNA in the presence of chemical substance/ (yeast gene YNL074C, ratio to control without chemical substance, 2 h culture): 1.1 | The level of expressed mRNA in the presence of chemical substance/ (yeast gene YNL092W, ratio to control without chemical substance, 2 h culture): 1.6 | The level of expressed mRNA in the presence of chemical substance/The level of expressed mRNA in the absence of chemical substance (yeast gene YNL093W): 1.4 | The level of expressed mRNA in the presence of chemical substance/ (yeast gene YNL115C, ratio to control without chemical substance, 2 h culture): 2.4 | The level of expressed mRNA in the presence of chemical substance/ (yeast gene YNL156C, ratio to control without chemical substance, 2 h culture): 1.9 | The level of expressed mRNA in the presence of chemical substance/ (yeast gene YNL234W, ratio to control without chemical substance, 2 h culture): 1.2 | The level of expressed mRNA in the presence of chemical substance/ (yeast gene YNL281W, ratio to control without chemical): 1.2 | The level of expressed mRNA in the presence of chemical substance/ (yeast gene YNL305C, ratio to control without chemical): 1.7 | The level of expressed mRNA in the presence of chemical substance/The level of expressed mRNA in the absence of chemical substance (yeast gene YNL333W): 2.9 | The level of expressed mRNA in the presence of chemical substance/The level of expressed mRNA in the absence of chemical substance (yeast gene YNR010W): 1.5 | The level of expressed mRNA in the presence of chemical substance/ (yeast gene YNR068C, ratio to control without chemical): 1.8 | The level of expressed mRNA in the presence of chemical substance/The level of expressed mRNA in the absence of chemical substance (yeast gene YNR069C): 1.4 | The level of expressed mRNA in the presence of chemical substance/in the absence of chemical substance (yeast gene YNR072W): 1.5 | The level of expressed mRNA in the presence of chemical substance/The level of expressed mRNA in the absence of chemical substance (yeast gene YOL013C): 1.7 | The level of expressed mRNA in the presence of chemical substance/ (yeast gene YOL032W, ratio to control without chemical): 1.4 | The level of expressed mRNA in the presence of chemical substance/ (yeast gene YOL036W, ratio to control without chemical): 1.0 | The level of expressed mRNA in the presence of chemical substance/ (yeast gene YOL047C, ratio to control without chemical): 1.3 | The level of expressed mRNA in the presence of chemical substance/ (yeast gene YOL071W, ratio to control without chemical): 2.0 | The level of expressed mRNA in the presence of chemical substance/ (yeast gene YOL082W, ratio to control without chemical): 2.5 | The level of expressed mRNA in the presence of chemical substance/ (yeast gene YOL083W, ratio to control without chemical): 3.1 | The level of expressed mRNA in the presence of chemical substance/in the absence of chemical substance (yeast gene YOL096C): 1.7 | The level of expressed mRNA in the presence of chemical substance/ (yeast gene YOL117W, ratio to control without chemical): 1.6 | The level of expressed mRNA in the presence of chemical substance/ (yeast gene YOL131W, ratio to control without chemical): 1.3 | The level of expressed mRNA in the presence of chemical substance/ (yeast gene YOL150C, ratio to control without chemical substance, 2 h culture): 2.4 | The level of expressed mRNA in the presence of chemical substance/ (yeast gene YOL162W, ratio to control without chemical): 2.0 | The level of expressed mRNA in the presence of chemical substance/The level of expressed mRNA in the absence of chemical substance (yeast gene YOL164W): 2.2 | The level of expressed mRNA in the presence of chemical substance/ (yeast gene YOR019W, ratio to control without chemical): 2.8 | The level of expressed mRNA in the presence of chemical substance/The level of expressed mRNA in the absence of chemical substance (yeast gene YOR036W): 1.8 | The level of expressed mRNA in the presence of chemical substance/The level of expressed mRNA in the absence of chemical substance (yeast gene YOR117W): 3.3 | The level of expressed mRNA in the presence of chemical substance/The level of expressed mRNA in the absence of chemical substance (yeast gene YOR124C): 1.1 | The level of expressed mRNA in the presence of chemical substance/The level of expressed mRNA in the absence of chemical substance (yeast gene YOR132W): 1.4 | The level of expressed mRNA in the presence of chemical substance/The level of expressed mRNA in the absence of chemical substance (yeast gene YOR157C): 1.2 | The level of expressed mRNA in the presence of chemical substance/in the absence of chemical substance (yeast gene YOR180C): 0.8 | The level of expressed mRNA in the presence of chemical substance/The level of expressed mRNA in the absence of chemical substance (yeast gene YOR181W): 0.7 | The level of expressed mRNA in the presence of chemical substance/The level of expressed mRNA in the absence of chemical substance (yeast gene YOR185C): 1.3 | The level of expressed mRNA in the presence of chemical substance/ (yeast gene YOR197W, ratio to control without chemical): 0.9 | The level of expressed mRNA in the presence of chemical substance/The level of expressed mRNA in the absence of chemical substance (yeast gene YOR198C): 1.6 | The level of expressed mRNA in the presence of chemical substance/The level of expressed mRNA in the absence of chemical substance (yeast gene YOR259C): 1.3 | The level of expressed mRNA in the presence of chemical substance/The level of expressed mRNA in the absence of chemical substance (yeast gene YOR261C): 1.9 | The level of expressed mRNA in the presence of chemical substance/The level of expressed mRNA in the absence of chemical substance (yeast gene YOR288C): 2.0 | The level of expressed mRNA in the presence of chemical substance/The level of expressed mRNA in the absence of chemical substance (yeast gene YOR355W): 1.1 | The level of expressed mRNA in the presence of chemical substance/in the absence of chemical substance (yeast gene YOR363C): 0.7 | The level of expressed mRNA in the presence of chemical substance/The level of expressed mRNA in the absence of chemical substance (yeast gene YOR383C): 8.0 | The level of expressed mRNA in the presence of chemical substance/ (yeast gene YPL087W, ratio to control without chemical): 4.2 | The level of expressed mRNA in the presence of chemical substance/The level of expressed mRNA in the absence of chemical substance (yeast gene YPL089C): 0.9 | The level of expressed mRNA in the presence of chemical substance/The level of expressed mRNA in the absence of chemical substance (yeast gene YPL109C): 1.8 | The level of expressed mRNA in the presence of chemical substance/The level of expressed mRNA in the absence of chemical substance (yeast gene YPL149W): 1.2 | The level of expressed mRNA in the presence of chemical substance/The level of expressed mRNA in the absence of chemical substance (yeast gene YPL154C): 1.5 | The level of expressed mRNA in the presence of chemical substance/ (yeast gene YPL196W, ratio to control without chemical): 2.4 | The level of expressed mRNA in the presence of chemical substance/ (yeast gene YPL206C, ratio to control without chemical): 1.2 | The level of expressed mRNA in the presence of chemical substance/ (yeast gene YPL222W, ratio to control without chemical): 1.1 | The level of expressed mRNA in the presence of chemical substance/ (yeast gene YPR023C, ratio to control without chemical): 1.2 | The level of expressed mRNA in the presence of chemical substance/The level of expressed mRNA in the absence of chemical substance (yeast gene YPR103W): 1.6 | The level of expressed mRNA in the presence of chemical substance/The level of expressed mRNA in the absence of chemical substance (yeast gene YPR108W): 1.6 | The level of expressed mRNA in the presence of chemical substance/ (yeast gene YPR151C, ratio to control without chemical): 4.4 | The level of expressed mRNA in the presence of chemical substance/in the absence of chemical substance (yeast gene YPR184W): 1.3
